Reference: US8075921B2, “Rapamycin-resistant T cells and therapeutic uses thereof” (The United States of America as represented by the …, priority 2001, dated 2011)

Assays:
naïve human CD4 cells = experiment: Co-stimulated expansion of flow-sorted naïve CD4 cells with or without rapamycin; format: cell-based; conditions: in rapamycin relative to control culture
Description: (§1) To this extent, naïve or memory human CD4 cells were purified by flow sorting, and co-stimulated either with or without rapamycin (results in FIG. 31).

[1] = test system: memory CD45RO^+ sorted cells; experiment: Co-stimulated expansion of flow-sorted memory CD4 cells with or without rapamycin; format: cell-based, human; conditions: in rapamycin relative to control culture
Description: as §1

Q: What does the source list for `CO[C@H]1C[C@@H]2CC[C@@H](C)[C@@](O)(O2)C(=O)C(=O)N2CCCC[C@H]2C(=O)O[C@H]([C@H](C)C[C@@H]2CC[C@@H](O)[C@H](OC)C2)CC(=O)[C@H](C)/C=C(\C)[C@@H](O)[C@@H](OC)C(=O)[C@H](C)C[C@H](C)/C=C/C=C/C=C/1C` [rapamycin]?
A: reduction in CD4 yield (naïve human CD4 cells): ~25%; reduction in CD4+ T cell expansion [1]: ~50%
